PMC10700596 (Nature Communications, 2023)
“And” between values parts separate entries of the source, which are not always exact repeats. Equal entries are not always repeated. “Also recorded” adds a separate entry of the source. Where two headings read alike, the source gives them in different places.

Experiments:
ABL1-phosphorylated = ABL1-phosphorylated (Homo sapiens, UniProt P00519); assay: biochemical; type: binding; conditions: 10000 nM; read-out: Percent Control
JNK2 = JNK2 (Homo sapiens, UniProt P45984); assay: biochemical; type: binding; conditions: 10000 nM; read-out: Percent Control
SNARK = SNARK (Homo sapiens, UniProt Q9H093); assay: biochemical; type: binding; conditions: 10000 nM; read-out: Percent Control
IKK-beta = IKK-beta (Homo sapiens, UniProt O14920); assay: biochemical; type: binding; conditions: 10000 nM; read-out: Percent Control
CSNK1D = CSNK1D (Homo sapiens, UniProt P48730); assay: biochemical; type: binding; conditions: 10000 nM; read-out: Percent Control
Sequence of CSNK1D (P48730 whole entry): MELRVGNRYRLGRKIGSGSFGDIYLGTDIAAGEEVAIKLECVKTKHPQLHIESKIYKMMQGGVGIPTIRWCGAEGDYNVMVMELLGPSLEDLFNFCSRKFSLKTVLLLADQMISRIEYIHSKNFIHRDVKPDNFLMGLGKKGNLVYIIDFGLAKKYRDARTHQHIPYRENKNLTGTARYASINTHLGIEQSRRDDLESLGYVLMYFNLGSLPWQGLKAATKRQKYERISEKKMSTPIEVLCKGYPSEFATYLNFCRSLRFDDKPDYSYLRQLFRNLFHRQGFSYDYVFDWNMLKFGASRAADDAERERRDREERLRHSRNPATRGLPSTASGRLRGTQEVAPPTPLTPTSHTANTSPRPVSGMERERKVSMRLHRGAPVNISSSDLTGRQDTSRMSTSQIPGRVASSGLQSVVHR

[1] = molecular target: T1, TYK2(JH1domain-catalytic) (Homo sapiens, UniProt P29597); assay: KINOMEscan; type: binding
T1 construct: TYK2(JH1domain-catalytic); purchased Eurofins DiscoverX KINOMEscan (scanEDGE, 97 kinases)
T1 sequence (P29597 888-1187 limits assumed): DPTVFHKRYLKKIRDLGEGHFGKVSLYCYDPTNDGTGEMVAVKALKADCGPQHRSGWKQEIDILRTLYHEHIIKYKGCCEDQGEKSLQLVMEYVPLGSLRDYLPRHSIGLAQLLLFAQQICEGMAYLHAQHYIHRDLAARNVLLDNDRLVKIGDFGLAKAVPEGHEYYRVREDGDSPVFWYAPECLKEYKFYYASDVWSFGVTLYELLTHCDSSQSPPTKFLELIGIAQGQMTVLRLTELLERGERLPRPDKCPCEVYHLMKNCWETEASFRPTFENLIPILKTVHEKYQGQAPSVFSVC

FGFR3 = FGFR3 (Homo sapiens, UniProt P22607); assay: biochemical; type: binding; conditions: 10000 nM; read-out: Percent Control
ERBB2 = ERBB2 (Homo sapiens, UniProt P04626); assay: biochemical; type: binding; conditions: 10000 nM; read-out: Percent Control
Sequence of ERBB2 (P04626 23-1255): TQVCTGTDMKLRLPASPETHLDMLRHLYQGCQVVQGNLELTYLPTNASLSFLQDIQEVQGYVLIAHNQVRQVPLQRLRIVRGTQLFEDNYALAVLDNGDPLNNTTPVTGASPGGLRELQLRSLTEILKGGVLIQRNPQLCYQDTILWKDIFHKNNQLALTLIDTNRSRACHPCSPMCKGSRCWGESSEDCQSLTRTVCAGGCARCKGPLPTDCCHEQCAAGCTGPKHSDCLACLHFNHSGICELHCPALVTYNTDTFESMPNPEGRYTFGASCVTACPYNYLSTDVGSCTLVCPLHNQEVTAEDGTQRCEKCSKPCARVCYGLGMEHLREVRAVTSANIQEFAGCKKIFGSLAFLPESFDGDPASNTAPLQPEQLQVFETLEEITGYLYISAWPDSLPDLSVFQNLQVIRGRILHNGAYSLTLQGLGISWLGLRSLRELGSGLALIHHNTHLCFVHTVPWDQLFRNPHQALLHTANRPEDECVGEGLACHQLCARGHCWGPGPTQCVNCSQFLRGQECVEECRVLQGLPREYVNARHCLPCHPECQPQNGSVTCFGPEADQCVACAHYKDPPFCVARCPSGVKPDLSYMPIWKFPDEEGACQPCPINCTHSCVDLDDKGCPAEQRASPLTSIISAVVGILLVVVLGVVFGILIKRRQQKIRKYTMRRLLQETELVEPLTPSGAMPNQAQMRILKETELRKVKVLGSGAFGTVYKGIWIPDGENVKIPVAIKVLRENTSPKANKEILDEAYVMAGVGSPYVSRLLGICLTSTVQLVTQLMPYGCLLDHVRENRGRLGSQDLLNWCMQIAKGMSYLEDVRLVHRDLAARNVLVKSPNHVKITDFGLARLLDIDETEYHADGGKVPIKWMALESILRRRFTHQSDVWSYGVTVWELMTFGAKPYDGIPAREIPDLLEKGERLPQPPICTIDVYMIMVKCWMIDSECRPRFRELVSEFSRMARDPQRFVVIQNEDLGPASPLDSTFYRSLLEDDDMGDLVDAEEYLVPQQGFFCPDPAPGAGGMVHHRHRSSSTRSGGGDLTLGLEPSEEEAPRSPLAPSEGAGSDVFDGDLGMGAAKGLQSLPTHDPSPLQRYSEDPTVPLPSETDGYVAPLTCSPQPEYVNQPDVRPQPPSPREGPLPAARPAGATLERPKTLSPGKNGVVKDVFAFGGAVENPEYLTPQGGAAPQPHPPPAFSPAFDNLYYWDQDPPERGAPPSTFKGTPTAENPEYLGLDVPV

AURKA = AURKA (Homo sapiens, UniProt O14965); assay: biochemical; type: binding; conditions: 10000 nM; read-out: Percent Control
GPR160 = GPR160 (Homo sapiens, UniProt Q9UJ42); type: cell-based
Description: (§1) EP4R. e) EP4R functional cyclic AMP production assay. Dose-response curves were obtained for 74 (KB […]
(§2) production assays for the prostaglandin D2 (PGD2) receptor or the Thromboxane A2 (TP) receptor, respectively. AZD1981 and Ramatroban were used as control PGD2 and TP receptor antagonists, respectively. U46619 served as a TP receptor agonist. H) GPCRome off-target screening of 74 at 10 µM. i) Potential off-targets that met the activity threshold (3-fold of increase of basal) in the GPCRome screen (GPR174, GPR160, or NMUR2) were investigated with full dose-response curves in PRESTO-Tango […]
(§3) Data in a)-d), f)-g), i) represents mean ± SEM of three independent experiments. Data in e) represents two technical replicates. Data in h) represents mean ± SEM of four technical replicates. Source data are provided as a Source Data file.
(§4) (1 picture or pasted object on this page, not shown here)

NMUR2 = NMUR2 (Homo sapiens, UniProt Q9GZQ4); type: cell-based
Sequence of NMUR2 (Q9GZQ4 whole entry): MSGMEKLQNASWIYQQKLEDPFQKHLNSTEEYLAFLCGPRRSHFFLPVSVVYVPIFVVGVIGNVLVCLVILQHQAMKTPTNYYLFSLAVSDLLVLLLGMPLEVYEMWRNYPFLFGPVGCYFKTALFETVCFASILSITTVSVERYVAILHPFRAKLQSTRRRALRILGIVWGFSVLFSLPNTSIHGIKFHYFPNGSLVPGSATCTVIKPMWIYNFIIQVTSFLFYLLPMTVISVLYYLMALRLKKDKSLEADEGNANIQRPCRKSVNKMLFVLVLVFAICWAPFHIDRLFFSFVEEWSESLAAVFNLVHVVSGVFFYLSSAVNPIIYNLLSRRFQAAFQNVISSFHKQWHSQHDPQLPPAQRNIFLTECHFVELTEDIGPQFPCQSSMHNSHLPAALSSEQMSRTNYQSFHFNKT
Description: as §1, §2, §3, §4

GPR174 = GPR174 (Homo sapiens, UniProt Q9BXC1); type: cell-based
Sequence of GPR174 (Q9BXC1 whole entry): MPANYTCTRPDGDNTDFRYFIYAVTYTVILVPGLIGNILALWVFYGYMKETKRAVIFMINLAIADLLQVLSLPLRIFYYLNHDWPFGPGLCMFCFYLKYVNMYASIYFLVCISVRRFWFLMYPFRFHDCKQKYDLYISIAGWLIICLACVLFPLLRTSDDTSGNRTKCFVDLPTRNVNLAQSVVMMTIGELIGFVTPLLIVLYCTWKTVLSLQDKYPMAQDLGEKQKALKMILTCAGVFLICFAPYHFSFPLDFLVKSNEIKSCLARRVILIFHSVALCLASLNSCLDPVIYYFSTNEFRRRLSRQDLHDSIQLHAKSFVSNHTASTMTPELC
Description: as §1, §2, §3, §4

COX-1 = molecular target: T2, COX-1 (Homo sapiens, UniProt P23219); assay: COX-1 inhibition (Eurofins item 4173); type: biochemical
T2 construct: purchased Eurofins item 4173
T2 sequence (P23219 24-599): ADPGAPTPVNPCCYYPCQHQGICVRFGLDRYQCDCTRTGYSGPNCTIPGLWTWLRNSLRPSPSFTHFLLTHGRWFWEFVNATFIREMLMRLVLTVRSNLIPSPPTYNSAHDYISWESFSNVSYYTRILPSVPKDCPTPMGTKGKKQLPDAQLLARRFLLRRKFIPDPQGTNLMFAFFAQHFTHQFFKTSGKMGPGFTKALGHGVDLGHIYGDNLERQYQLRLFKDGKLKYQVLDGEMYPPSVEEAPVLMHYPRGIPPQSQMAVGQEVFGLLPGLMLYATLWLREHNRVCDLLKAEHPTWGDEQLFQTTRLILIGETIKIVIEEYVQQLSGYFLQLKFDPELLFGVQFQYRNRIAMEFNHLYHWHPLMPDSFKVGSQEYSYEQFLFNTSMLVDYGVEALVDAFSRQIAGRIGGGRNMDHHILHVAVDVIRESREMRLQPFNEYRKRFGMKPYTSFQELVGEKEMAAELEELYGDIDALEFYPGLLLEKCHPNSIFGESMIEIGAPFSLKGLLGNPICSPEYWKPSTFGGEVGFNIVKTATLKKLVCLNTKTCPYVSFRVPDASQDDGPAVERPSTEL
Excerpt: (§5) . […] This panel includes several adverse drug reaction receptors such as the serotonin receptor 5HT2b, M1 and M2 muscarinic receptors and adrenergic receptors. […]. page 7:
(§6) Supplementary Figure 7: Non-GPCR off-target screening for 74. a)-e) Dose-response curves of 74 at […]
(§7) proliferator-activated receptor gamma (PPARγ, Eurofins item G124). Data in a)-e) and g)-i) represent two technical replicates. Source data are provided as a Source Data file.
as §4

PPARγ = molecular target: T3, PPARγ (Homo sapiens, UniProt P37231); assay: PPARγ agonist/antagonist assay (Eurofins item G124); type: biochemical
T3 construct: purchased Eurofins item G124
T3 sequence (P37231 whole entry, species assumed): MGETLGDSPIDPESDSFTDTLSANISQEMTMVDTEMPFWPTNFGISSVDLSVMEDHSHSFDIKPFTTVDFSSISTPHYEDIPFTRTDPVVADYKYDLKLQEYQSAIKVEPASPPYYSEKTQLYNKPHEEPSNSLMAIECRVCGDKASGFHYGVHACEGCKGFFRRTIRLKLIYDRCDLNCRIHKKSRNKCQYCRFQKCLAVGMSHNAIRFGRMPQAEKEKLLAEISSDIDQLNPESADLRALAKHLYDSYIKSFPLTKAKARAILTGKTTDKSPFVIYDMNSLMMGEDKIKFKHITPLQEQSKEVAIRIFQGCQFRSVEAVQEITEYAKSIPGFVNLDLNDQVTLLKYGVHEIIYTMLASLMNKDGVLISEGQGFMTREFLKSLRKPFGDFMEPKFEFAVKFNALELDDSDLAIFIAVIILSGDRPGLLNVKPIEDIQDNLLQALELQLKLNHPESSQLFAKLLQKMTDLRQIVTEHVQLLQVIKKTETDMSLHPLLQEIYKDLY
Excerpt: as §5, §6, §7, §4

[2] = molecular target: T4, RSK2(Kin.Dom.1-N-terminal) (Homo sapiens, UniProt P51812); assay: KINOMEscan; type: binding
T4 construct: RSK2(Kin.Dom.1-N-terminal); purchased Eurofins DiscoverX KINOMEscan (scanEDGE, 97 kinases)
T4 sequence (P51812 1-397 limits assumed): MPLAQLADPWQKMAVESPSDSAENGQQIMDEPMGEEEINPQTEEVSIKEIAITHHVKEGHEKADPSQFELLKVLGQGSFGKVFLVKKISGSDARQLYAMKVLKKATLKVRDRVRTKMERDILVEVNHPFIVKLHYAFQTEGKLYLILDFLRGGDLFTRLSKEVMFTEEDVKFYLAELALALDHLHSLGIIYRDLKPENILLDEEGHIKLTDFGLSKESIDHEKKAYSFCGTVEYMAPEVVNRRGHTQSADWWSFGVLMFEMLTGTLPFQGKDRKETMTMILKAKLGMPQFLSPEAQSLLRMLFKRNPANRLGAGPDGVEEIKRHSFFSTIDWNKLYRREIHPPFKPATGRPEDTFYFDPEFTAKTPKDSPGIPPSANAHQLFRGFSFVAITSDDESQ

ALK = ALK (Homo sapiens, UniProt Q9UM73); assay: biochemical; type: binding; conditions: 10000 nM; read-out: Percent Control
BMPR2 = BMPR2 (Homo sapiens, UniProt Q13873); assay: biochemical; type: binding; conditions: for Signal (qPCR): BMPR2
Sequence of BMPR2 (Q13873 27-1038): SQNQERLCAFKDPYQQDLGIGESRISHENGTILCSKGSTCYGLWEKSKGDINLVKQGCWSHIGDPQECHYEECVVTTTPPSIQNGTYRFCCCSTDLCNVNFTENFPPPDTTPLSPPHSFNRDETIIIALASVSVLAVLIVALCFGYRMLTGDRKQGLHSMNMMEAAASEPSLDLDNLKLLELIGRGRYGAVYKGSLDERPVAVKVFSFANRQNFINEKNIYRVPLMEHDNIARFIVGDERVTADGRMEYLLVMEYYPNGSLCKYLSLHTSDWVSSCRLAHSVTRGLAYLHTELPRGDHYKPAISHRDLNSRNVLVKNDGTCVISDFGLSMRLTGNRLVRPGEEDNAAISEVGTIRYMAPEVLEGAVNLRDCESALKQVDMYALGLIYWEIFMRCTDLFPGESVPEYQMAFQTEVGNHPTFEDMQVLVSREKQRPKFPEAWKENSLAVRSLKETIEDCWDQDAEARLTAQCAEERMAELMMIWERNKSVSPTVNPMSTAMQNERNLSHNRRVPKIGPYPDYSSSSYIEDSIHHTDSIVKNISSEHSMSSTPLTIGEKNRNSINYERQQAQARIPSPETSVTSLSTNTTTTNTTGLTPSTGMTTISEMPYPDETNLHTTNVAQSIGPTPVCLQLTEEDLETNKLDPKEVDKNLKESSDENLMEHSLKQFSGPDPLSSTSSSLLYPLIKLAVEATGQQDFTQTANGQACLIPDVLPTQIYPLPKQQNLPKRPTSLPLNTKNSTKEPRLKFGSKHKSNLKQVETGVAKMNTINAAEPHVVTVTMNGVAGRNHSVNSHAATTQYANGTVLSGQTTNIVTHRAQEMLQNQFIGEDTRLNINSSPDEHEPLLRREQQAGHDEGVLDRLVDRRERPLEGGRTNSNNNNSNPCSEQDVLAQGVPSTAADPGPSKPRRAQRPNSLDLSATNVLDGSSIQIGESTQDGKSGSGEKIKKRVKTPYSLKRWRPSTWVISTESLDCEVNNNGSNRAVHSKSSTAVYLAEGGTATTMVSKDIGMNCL
Excerpt: Supplementary Figure 7: Non-GPCR off-target screening for 74. a)-e) Dose-response curves of 74 at
proliferator-activated receptor gamma (PPARγ, Eurofins item G124). Data in a)-e) and g)-i) represent two
technical replicates. Source data are provided as a Source Data file.

FLT3 = FLT3 (Homo sapiens, UniProt P36888); assay: biochemical; type: binding; conditions: 10000 nM; read-out: Percent Control
mice = type: in vivo; conditions: for CFA-induced allodynia, mechanical threshold (von Frey): individual animals
[3] = 10000 nM, read-out: Percent Control

O=C(O)C1CCC2(CC1)CC(Nc1ncnc3[nH]c4c(F)cccc4c13)C2 (stereo not drawn) [Compound 74, OC(=O)C1CCC2(CC(C2)NC=3N=CN=C4NC=5C(F)=CC=CC5C34)CC1]
remaining activity at 10 µM (ABL1-phosphorylated): 63% | remaining activity at 10 µM (JNK2): 41% | remaining activity at 10 µM (SNARK): 54% | remaining activity at 10 µM (IKK-beta): 3.2% | remaining activity at 10 µM (CSNK1D): 3.2% | remaining binding at 10 µM [1, 3]: 0% | Signal (qPCR) ([1]; TYK2, [Compound] 0.0001 nM): 4e-6 and 3.91e-6 | Signal (qPCR) ([1]; TYK2, [Compound] 0.01 nM): 3.79e-6 and 3.64e-6 | Signal (qPCR) ([1]; TYK2, [Compound] 0.169 nM): 3.6e-6 and 3.79e-6 | Signal (qPCR) ([1]; TYK2, [Compound] 0.508 nM): 4.38e-6 and 4.26e-6 | Signal (qPCR) ([1]; TYK2, [Compound] 1.52 nM): 4.63e-6 and 4.29e-6 | Signal (qPCR) ([1]; TYK2, [Compound] 13.7 nM): 3.86e-6 and 3.5e-6 | Signal (qPCR) ([1]; TYK2, [Compound] 41.2 nM): 4.1e-6 and 3.94e-6 | Signal (qPCR) ([1]; TYK2, [Compound] 123 nM): 2.97e-6 and 3.29e-6 | Signal (qPCR) ([1]; TYK2, [Compound] 370 nM): 2.73e-6 and 2.71e-6 | Signal (qPCR) ([1]; TYK2, [Compound] 3330 nM): 6.46e-7 and 5.93e-7 | Signal (qPCR) ([1]; TYK2, [Compound] 10000 nM): 1.74e-7 and 2.08e-7 | remaining activity at 10 µM (FGFR3): 81% | remaining activity at 10 µM (ERBB2): 49% | remaining activity at 10 µM (AURKA): 22% | activity in full dose-response (GPR160): no activity | activity in full dose-response (NMUR2): no activity | activity in full dose-response (GPR174): no activity | inhibitory / off-target activity at COX-1 (COX-1; 3 µM): no off-target activity; also recorded: no inhibitory activity | %Inhibition of Control Values (COX-1; COX-1, 3 µM, technical replicates): -5.7% and -9.9% | agonist or antagonist activity at PPARγ (PPARγ): no agonist or antagonist activity | inhibitory activity against PPARγ (PPARγ; 3 µM): no inhibitory activity | remaining binding at 10 µM [2, 3]: 0.25% | Signal (qPCR) ([2]; RSK2, [Compound] 0.0001 nM): 4.94e-6 and 4.75e-6 | Signal (qPCR) ([2]; RSK2, [Compound] 0.01 nM): 3.91e-6 and 4.73e-6 | Signal (qPCR) ([2]; RSK2, [Compound] 0.169 nM): 4.25e-6 and 3.92e-6 | Signal (qPCR) ([2]; RSK2, [Compound] 0.508 nM): 4.17e-6 and 4.75e-6 | Signal (qPCR) ([2]; RSK2, [Compound] 1.52 nM): 4.57e-6 and 4.32e-6 | Signal (qPCR) ([2]; RSK2, [Compound] 4.57 nM): 4.65e-6 and 4.1e-6 | Signal (qPCR) ([2]; RSK2, [Compound] 13.7 nM): 3.9e-6 and 3.53e-6 | Signal (qPCR) ([2]; RSK2, [Compound] 41.2 nM): 3.36e-6 and 3.55e-6 | Signal (qPCR) ([2]; RSK2, [Compound] 123 nM): 3.09e-6 and 2.73e-6 | Signal (qPCR) ([2]; RSK2, [Compound] 370 nM): 2.17e-6 and 2e-6 | Signal (qPCR) ([2]; RSK2, [Compound] 3330 nM): 5.93e-7 and 5.31e-7 | Signal (qPCR) ([2]; RSK2, [Compound] 10000 nM): 2.67e-7 and 3.25e-7 | remaining activity at 10 µM (ALK): 14% | remaining activity at 10 µM (BMPR2; [3]): 0% | Kd (BMPR2; BMPR2, dose-response): 0.03 µM | Signal (qPCR) (BMPR2; compound 1e-5 nM): 3.65e-5 and 5.32e-5 | Signal (qPCR) (BMPR2; compound 0.0001 nM): 5.46e-5 and 5.63e-5 | Signal (qPCR) (BMPR2; compound 0.001 nM): 6.07e-5 and 6.11e-5 | Signal (qPCR) (BMPR2; compound 0.169 nM): 4.64e-5 and 4.8e-5 | Signal (qPCR) (BMPR2; compound 0.508 nM): 4.94e-5 and 5.14e-5 | Signal (qPCR) (BMPR2; compound 1.52 nM): 5.5e-5 and 5.39e-5 | Signal (qPCR) (BMPR2; compound 4.57 nM): 5.07e-5 and 5.31e-5 | Signal (qPCR) (BMPR2; compound 13.7 nM): 3.76e-5 and 3.48e-5 | Signal (qPCR) (BMPR2; compound 41.2 nM): 2.19e-5 and 2.2e-5 | Signal (qPCR) (BMPR2; compound 123 nM): 7.98e-6 and 7.65e-6 | Signal (qPCR) (BMPR2; compound 370 nM): 1.69e-6 and 1.57e-6 | Signal (qPCR) (BMPR2; compound 3330 nM): 4.07e-8 and 4.89e-8 | Signal (qPCR) (BMPR2; compound 10000 nM): 1.28e-8 and 1.26e-8 | remaining activity at 10 µM (FLT3): 26% | CFA-induced allodynia, mechanical threshold (von Frey) (mice; 10 mg/kg IP, day 3): 31.5 and 39 and 36.3 and 64.2 and 20.2 | CFA-induced allodynia, mechanical threshold (von Frey) (mice; 30 mg/kg IP, day 4): 35.4 and 28.1 and 62 and 31.3 and 22.9 | effect on CFA-induced mechanical allodynia (mice; 10 and 30 mg/kg i.p.): significantly decreased; also recorded: reduced
